From ChEMBL document CHEMBL4004838, “Design and synthesis of novel phenyl -1, 4-beta-carboline-hybrid molecules as potential anticancer agents” (Eur J Med Chem, 2017)

Assays:
Type in all cases: functional
786-0 = experiment: Growth inhibition of human 786-0 cells assessed as cell growth at 10^-5 M incubated for 48 hrs by sulforhodamine B assay relative to control; details: 786-0, 48 h, read-out: Activity
CCRF-CEM = experiment: Growth inhibition of human CCRF-CEM cells assessed as cell growth at 10^-5 M incubated for 48 hrs by sulforhodamine B assay relative to control; details: read-out: Activity
A549 = experiment: Growth inhibition of human A549/ATCC cells assessed as cell growth at 10^-5 M incubated for 48 hrs by sulforhodamine B assay relative to control; details: A549, 48 h, read-out: Activity
HCT-116 = experiment: Growth inhibition of human HCT116 cells assessed as cell growth at 10^-5 M incubated for 48 hrs by sulforhodamine B assay relative to control; details: HCT-116, 48 h, read-out: Activity
Hs-578T = experiment: Growth inhibition of human Hs 578T cells assessed as cell growth at 10^-5 M incubated for 48 hrs by sulforhodamine B assay relative to control; details: read-out: Activity
SK-MEL-2 = experiment: Growth inhibition of human SK-MEL-2 cells assessed as cell growth at 10^-5 M incubated for 48 hrs by sulforhodamine B assay relative to control; details: SK-MEL-2, 48 h, read-out: Activity
A498 = experiment: Growth inhibition of human A498 cells assessed as cell growth at 10^-5 M incubated for 48 hrs by sulforhodamine B assay relative to control; details: A498, 48 h, read-out: Activity
COLO 205 = experiment: Growth inhibition of human COLO205 cells assessed as cell growth at 10^-5 M incubated for 48 hrs by sulforhodamine B assay relative to control; details: COLO 205, 48 h, read-out: Activity
NCI-H23 = experiment: Growth inhibition of human NCI-H23 cells assessed as cell growth at 10^-5 M incubated for 48 hrs by sulforhodamine B assay relative to control; details: NCI-H23, 48 h, read-out: Activity
CAKI-1 = experiment: Growth inhibition of human Caki1 cells assessed as cell growth at 10^-5 M incubated for 48 hrs by sulforhodamine B assay relative to control; details: CAKI-1, 48 h, read-out: Activity
RPMI-8226 = experiment: Growth inhibition of human RPMI8226 cells assessed as cell growth at 10^-5 M incubated for 48 hrs by sulforhodamine B assay relative to control; details: RPMI-8226, 48 h, read-out: Activity
NCI/ADR-RES = experiment: Growth inhibition of human NCI-ADR-RES cells assessed as cell growth at 10^-5 M incubated for 48 hrs by sulforhodamine B assay relative to control; details: read-out: Activity
Malme-3M = experiment: Growth inhibition of human MALME-3M cells assessed as cell growth at 10^-5 M incubated for 48 hrs by sulforhodamine B assay relative to control; details: read-out: Activity
NCI-H460 = experiment: Growth inhibition of human NCI-H460 cells assessed as cell growth at 10^-5 M incubated for 48 hrs by sulforhodamine B assay relative to control; details: NCI-H460, 48 h, read-out: Activity
NCI-H322M = experiment: Growth inhibition of human NCI-H322M cells assessed as cell growth at 10^-5 M incubated for 48 hrs by sulforhodamine B assay relative to control; details: read-out: Activity
MCF7 = experiment: Growth inhibition of human MCF7 cells assessed as cell growth at 10^-5 M incubated for 48 hrs by sulforhodamine B assay relative to control; details: MCF7, 48 h, read-out: Activity
U-251 = experiment: Growth inhibition of human U251 cells assessed as cell growth at 10^-5 M incubated for 48 hrs by sulforhodamine B assay relative to control; details: U-251, 48 h, read-out: Activity
HOP-92 = experiment: Growth inhibition of human HOP92 cells assessed as cell growth at 10^-5 M incubated for 48 hrs by sulforhodamine B assay relative to control; details: HOP-92, 48 h, read-out: Activity
SF-295 = experiment: Growth inhibition of human SF295 cells assessed as cell growth at 10^-5 M incubated for 48 hrs by sulforhodamine B assay relative to control; details: SF-295, 48 h, read-out: Activity
NCI-H226 = experiment: Growth inhibition of human NCI-H226 cells assessed as cell growth at 10^-5 M incubated for 48 hrs by sulforhodamine B assay relative to control; details: NCI-H226, 48 h, read-out: Activity
SW-620 = experiment: Growth inhibition of human SW620 cells assessed as cell growth at 10^-5 M incubated for 48 hrs by sulforhodamine B assay relative to control; details: SW-620, 48 h, read-out: Activity
NCI-H522 = experiment: Growth inhibition of human NCI-H522 cells assessed as cell growth at 10^-5 M incubated for 48 hrs by sulforhodamine B assay relative to control; details: NCI-H522, 48 h, read-out: Activity
HCT-15 = experiment: Growth inhibition of human HCT15 cells assessed as cell growth at 10^-5 M incubated for 48 hrs by sulforhodamine B assay relative to control; details: HCT-15, 48 h, read-out: Activity
PC-3 = experiment: Growth inhibition of human PC3 cells assessed as cell growth at 10^-5 M incubated for 48 hrs by sulforhodamine B assay relative to control; details: PC-3, 48 h, read-out: Activity
SR = experiment: Growth inhibition of human SR cells assessed as cell growth at 10^-5 M incubated for 48 hrs by sulforhodamine B assay relative to control; details: read-out: Activity
SF-268 = experiment: Growth inhibition of human SF268 cells assessed as cell growth at 10^-5 M incubated for 48 hrs by sulforhodamine B assay relative to control; details: SF-268, 48 h, read-out: Activity
HOP-62 = experiment: Growth inhibition of human HOP62 cells assessed as cell growth at 10^-5 M incubated for 48 hrs by sulforhodamine B assay relative to control; details: HOP-62, 48 h, read-out: Activity
KM12 = experiment: Growth inhibition of human KM12 cells assessed as cell growth at 10^-5 M incubated for 48 hrs by sulforhodamine B assay relative to control; details: KM12, 48 h, read-out: Activity
MDA-MB-435 = experiment: Growth inhibition of human MDA-MB-435 cells assessed as cell growth at 10^-5 M incubated for 48 hrs by sulforhodamine B assay relative to control; details: MDA-MB-435, 48 h, read-out: Activity
K562 = experiment: Growth inhibition of human K562 cells assessed as cell growth at 10^-5 M incubated for 48 hrs by sulforhodamine B assay relative to control; details: K562, 48 h, read-out: Activity
HL-60(TB) = experiment: Growth inhibition of human HL-60(TB) cells assessed as cell growth at 10^-5 M incubated for 48 hrs by sulforhodamine B assay relative to control; details: HL-60, 48 h, read-out: Activity
M14 = experiment: Growth inhibition of human M14 cells assessed as cell growth at 10^-5 M incubated for 48 hrs by sulforhodamine B assay relative to control; details: M14, 48 h, read-out: Activity

SMILES	growth at 10 µM (786-0) [%]	growth at 10 µM (CCRF-CEM) [%]	growth at 10 µM (A549) [%]	growth at 10 µM (HCT-116) [%]	growth at 10 µM (Hs-578T) [%]	growth at 10 µM (SK-MEL-2) [%]	growth at 10 µM (A498) [%]	growth at 10 µM (COLO 205) [%]	growth at 10 µM (NCI-H23) [%]	growth at 10 µM (CAKI-1) [%]	growth at 10 µM (RPMI-8226) [%]	growth at 10 µM (NCI/ADR-RES) [%]	growth at 10 µM (Malme-3M) [%]	growth at 10 µM (NCI-H460) [%]	growth at 10 µM (NCI-H322M) [%]	growth at 10 µM (MCF7) [%]	growth at 10 µM (U-251) [%]	growth at 10 µM (HOP-92) [%]	growth at 10 µM (SF-295) [%]	growth at 10 µM (NCI-H226) [%]	also measured
c1ccc2[nH]c(-c3ccc(C4NCCc5c4[nH]c4ccccc54)cc3)nc2c1 (centres undefined)	95.9	103	82.9	96.1	93.9	96.8	104	98.3	102	77.5	97.3	109	90	104	92.8	96.7	93.4	82.2	107	93.5	growth at 10 µM (SW-620): 99.1%; growth at 10 µM (NCI-H522): 83.5%; growth at 10 µM (HCT-15): 107%; growth at 10 µM (PC-3): 85%; growth at 10 µM (SR): 119%; growth at 10 µM (SF-268): 98.6%; growth at 10 µM (HOP-62): 89%; growth at 10 µM (KM12): 103%; growth at 10 µM (MDA-MB-435): 101%; growth at 10 µM (K562): 88.2%; growth at 10 µM (HL-60(TB)): 97.9%; growth at 10 µM (M14): 96.6%
O=Cc1ccc(C2NCCc3c2[nH]c2ccccc32)cc1 (centres undefined)	104	99.3	94.7	78.4	90.5	94.8	86.4	105	87.1	72.4	101	107	100	100	97.6	91.9	95.3	87.2	101	78.2	growth at 10 µM (SW-620): 88.8%; growth at 10 µM (NCI-H522): 88%; growth at 10 µM (HCT-15): 101%; growth at 10 µM (PC-3): 84.3%; growth at 10 µM (SR): 114%; growth at 10 µM (SF-268): 101%; growth at 10 µM (HOP-62): 86.3%; growth at 10 µM (KM12): 107%; growth at 10 µM (MDA-MB-435): 107%; growth at 10 µM (K562): 102%; growth at 10 µM (HL-60(TB)): 89.4%; growth at 10 µM (M14): 89.5%
